Experimental data published in patent publication US5006522A, “Condensed diazepinones, processes for preparing them and pharmaceutical compositions containing these compounds” (Karl Thomae GmbH, priority 1988, dated 1991).

How the values were obtained:
secretion of saliva = assay: Salivation-inhibiting effect in the rat (pilocarpine); type: in vivo, rat (male THOM); details: iv, urethane anaesthesia, pilocarpine 2 mg/kg s.c., read-out: -log ED50, Salivation inhibition (converted)
Protocol: The secretion of saliva was initiated by subcutaneous administration of 2 mg/kg of pilocarpine. The saliva was absorbed with blotting paper and the surface area covered was measured every 5 minutes by planimetry. The dosage of the substance which reduced the volume of saliva by 50% was determined graphically. For the results see Table II.

[1] = test system: acetylcholine effect on bladder; assay: Inhibition of the effect of acetylcholine on the bladder in guinea pigs; type: in vivo; details: Cavia porcellus, iv, 5 min; guinea pig, acetylcholine 10 microgram/kg i.v. and i.a., 5 min after substance; read-out: -log ED50, Bladder (converted)
Protocol: (§1) 5 minutes after the administration of the test substance, 10 microgram/kg of acetylcholine were simultaneously injected intravenously and intraarterially into anaesthetised guinea pigs. The heart rate was recorded directly by extracorporeal derivation of the ECG, the expiration resistance according to Konzett-Robler and contraction of the exposed bladder. In order to determine the inhibition of the acetylcholine activity on the organs under investigation, dosage/activity curves were recorded and from them -log ED50 values were determined.

[2] = target: T1, muscarinic receptors (heart) (Rattus norvegicus, UniProt P10980); assay: Binding to muscarinic receptors, 3H-NMS displacement, heart; set-up: species or system rat (male Sprague-Dawley); details: for IC50: 0.3 nM 3H-NMS, 30° C., 45 min, pH 7.4, read-out: IC50 receptor binding test, Heart (H); for potency compared with compound D: Table I, receptor binding, same selectivity maintained
T1 construct: The whole heart was cut up with scissors; All the organs were then homogenised in a Potter apparatus; from tissue; host or cells: homogenate of rat whole heart
T1 sequence (P10980 1-466): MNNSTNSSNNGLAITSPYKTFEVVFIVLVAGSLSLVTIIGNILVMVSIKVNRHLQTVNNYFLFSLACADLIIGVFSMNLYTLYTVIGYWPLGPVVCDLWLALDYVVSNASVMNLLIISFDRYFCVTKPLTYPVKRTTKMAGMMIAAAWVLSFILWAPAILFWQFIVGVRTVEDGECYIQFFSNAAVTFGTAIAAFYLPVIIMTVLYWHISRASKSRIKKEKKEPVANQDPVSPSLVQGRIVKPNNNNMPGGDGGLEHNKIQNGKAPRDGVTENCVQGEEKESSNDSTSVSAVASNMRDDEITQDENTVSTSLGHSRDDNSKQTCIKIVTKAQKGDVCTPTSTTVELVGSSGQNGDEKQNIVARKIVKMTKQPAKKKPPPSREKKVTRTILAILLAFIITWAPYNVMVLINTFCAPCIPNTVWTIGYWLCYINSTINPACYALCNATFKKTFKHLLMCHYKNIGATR
Protocol: (§2) The organs were donated by male Sprague-Dawley rats weighing 180-220 g After the heart and submandibular gland and cerebral cortex had been removed, all other steps were carried out in ice-cold Hepes HCl buffer (pH 7.4; 100 millimolar NaCl, 10 millimolar MgCl2). The whole heart was cut up with scissors. All the organs were then homogenised in a Potter apparatus.
(§3) For the binding test the homogenised organs were diluted as follows:
(§4) The homogenised organs were incubated at a given concentration of the radioligand and at a series of concentrations of the non-radioactive test substances in an Eppendorf centrifuge tube at 30° C. Incubation lasted 45 minutes. The radioligand used was 0.3 nanomolar ^3 H-N-methylscopolamine (^3 H-NMS). Incubation was ended by the addition of ice-cold buffer followed by vacuum filtration. The filters were rinsed with cold buffer and their radioactivity was determined. This represents the sum of specific and non-specific binding of ^3 H-NMS. The proportion of non-specific binding was defined as the radioactivity which was bound in the presence of 1 micromolar quinuclidinylbenzylate. Each measurement was taken four times. The IC50 values of the non-labelledtest substances were determined graphically. They represent that concentration of test substance at which the specific binding of ^3 H-NMS to the muscarinic receptors in the various organs was inhibited by 50%.

M2 = target: T2, M2 (Rattus norvegicus, UniProt P10980); assay: M1/M2 selectivity in the rat: reduction of vagal bradycardia (M2); type: in vivo, rat (male THOM); details: iv, 5 min, i.v., 5 min before right vagus stimulation, read-out: -log ED50, Heart (vagal bradycardia, M2) (converted)
T2 construct: from tissue; host or cells: heart of the living rat (in vivo)
T2 sequence (P10980 1-466): T1 sequence (P10980 1-466)
Protocol: The method used was described by Hammer and Giachetti (Life Sciences 31, 2991-2998 (1982)). 5 minutes after the intravenous injection of increasing doses of the substance, either the right vagus was electrically stimulated (frequency: 25 Hz; pulse width: 2 ms; duration of stimulus: 30s; voltage: supramaximal) or 0.3 mg/kg of McN-A-343 were intravenously injected into male THOM rats. The bradycardia caused by vagus stimulation and the rise in blood pressure caused by McN-A-343 were determined. The dosage of the substances which reduced either the vagal bradycardia (M2) or the rise in blood pressure (M1) by 50% was determined graphically. For the results see Table II.

[3] = test system: acetylcholine effect on bronchi; assay: Inhibition of the effect of acetylcholine on the bronchi in guinea pigs; type: in vivo; details: Cavia porcellus, iv, 5 min; guinea pig, acetylcholine 10 microgram/kg i.v. and i.a., 5 min after substance; read-out: -log ED50, Bronchi (converted)
Protocol: as §1

[4] = test system: acetylcholine effect on heart rate; assay: Inhibition of the effect of acetylcholine on heart rate in guinea pigs; type: in vivo; details: Cavia porcellus, iv, 5 min; guinea pig, acetylcholine 10 microgram/kg i.v. and i.a., 5 min after substance; read-out: -log ED50, Heart (heart rate) (converted)
Protocol: as §1

[5] = target: T3, muscarinic receptors (submandibular gland) (Rattus norvegicus, UniProt P08483); assay: Binding to muscarinic receptors, 3H-NMS displacement, submandibular gland; set-up: species or system rat (male Sprague-Dawley); details: for IC50: 0.3 nM 3H-NMS, 30° C., 45 min, pH 7.4, read-out: IC50 receptor binding test, Submandibular gland (SM); for Selectivity factor [drawing 24]: head is a drawing, values equal IC50 SM / IC50 H
T3 construct: After the heart and submandibular gland and cerebral cortex had been removed; from tissue; host or cells: homogenate of rat submandibular gland
T3 sequence (P08483 whole entry): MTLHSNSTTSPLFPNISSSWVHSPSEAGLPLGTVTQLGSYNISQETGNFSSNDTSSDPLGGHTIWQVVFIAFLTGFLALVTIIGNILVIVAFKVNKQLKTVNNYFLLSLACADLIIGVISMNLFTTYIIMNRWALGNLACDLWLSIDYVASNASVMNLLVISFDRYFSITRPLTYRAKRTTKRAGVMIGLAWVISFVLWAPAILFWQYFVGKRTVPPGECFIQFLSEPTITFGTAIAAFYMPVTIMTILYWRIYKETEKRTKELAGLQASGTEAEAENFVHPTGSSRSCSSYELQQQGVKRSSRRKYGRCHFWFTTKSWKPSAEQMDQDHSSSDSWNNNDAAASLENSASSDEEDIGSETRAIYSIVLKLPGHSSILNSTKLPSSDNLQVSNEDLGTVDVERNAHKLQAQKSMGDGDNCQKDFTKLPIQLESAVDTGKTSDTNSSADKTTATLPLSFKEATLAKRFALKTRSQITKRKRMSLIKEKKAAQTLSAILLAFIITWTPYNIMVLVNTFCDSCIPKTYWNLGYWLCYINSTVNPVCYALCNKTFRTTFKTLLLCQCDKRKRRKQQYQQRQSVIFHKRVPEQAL
Protocol: as §2, §3, §4

M1 = target: T4, M1 (Rattus norvegicus, UniProt P08482); assay: M1/M2 selectivity in the rat: reduction of McN-A-343 induced rise in blood pressure (M1); type: in vivo, rat (male THOM); details: iv, 5 min, i.v., 5 min before 0.3 mg/kg McN-A-343 i.v., read-out: -log ED50, Blood pressure (M1) (converted)
T4 construct: from tissue; host or cells: living rat (in vivo; sympathetic ganglia by own knowledge)
T4 sequence (P08482 1-460): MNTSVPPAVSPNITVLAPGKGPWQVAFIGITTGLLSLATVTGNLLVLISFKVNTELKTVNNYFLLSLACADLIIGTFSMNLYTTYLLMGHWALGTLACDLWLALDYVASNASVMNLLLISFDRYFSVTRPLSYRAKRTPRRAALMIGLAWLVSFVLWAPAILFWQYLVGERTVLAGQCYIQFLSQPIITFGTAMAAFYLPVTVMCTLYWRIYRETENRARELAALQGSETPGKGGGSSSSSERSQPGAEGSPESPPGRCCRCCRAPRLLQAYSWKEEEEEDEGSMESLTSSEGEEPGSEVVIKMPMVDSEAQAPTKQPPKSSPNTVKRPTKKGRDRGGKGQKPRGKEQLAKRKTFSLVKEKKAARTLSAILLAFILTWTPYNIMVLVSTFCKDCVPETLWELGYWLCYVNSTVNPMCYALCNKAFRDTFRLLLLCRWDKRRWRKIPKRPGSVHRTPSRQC
Protocol: The dosage of the substances which reduced either the vagal bradycardia (M2) or the rise in blood pressure (M1) by 50% was determined graphically. For the results see Table II.

[6] = target: muscarinic receptors (cerebral cortex); assay: Binding to muscarinic receptors, 3H-NMS displacement, cerebral cortex; set-up: species or system rat (male Sprague-Dawley); details: for IC50: 0.3 nM 3H-NMS, 30° C., 45 min, pH 7.4, read-out: IC50 receptor binding test, Cortex (C); for Selectivity factor [drawing 25]: head is a drawing, values equal IC50 C / IC50 H
Protocol: as §2, §3, §4

[7] = Water solubility of the monohydrochloride; type: physicochemical
histamine-H1 receptor = target: T5, histamine-H1 receptor (Rattus norvegicus, UniProt P31390); assay: Binding to the histamine-H1 receptor (3H-pyrilamine); details: 2 nM 3H-pyrilamine, ambient temperature, 60 min, whole rat brain without cerebellum
T5 construct: whole rat brains were used without the cerebellum; from tissue; host or cells: membranes of whole rat brain without cerebellum
T5 sequence (P31390 whole entry): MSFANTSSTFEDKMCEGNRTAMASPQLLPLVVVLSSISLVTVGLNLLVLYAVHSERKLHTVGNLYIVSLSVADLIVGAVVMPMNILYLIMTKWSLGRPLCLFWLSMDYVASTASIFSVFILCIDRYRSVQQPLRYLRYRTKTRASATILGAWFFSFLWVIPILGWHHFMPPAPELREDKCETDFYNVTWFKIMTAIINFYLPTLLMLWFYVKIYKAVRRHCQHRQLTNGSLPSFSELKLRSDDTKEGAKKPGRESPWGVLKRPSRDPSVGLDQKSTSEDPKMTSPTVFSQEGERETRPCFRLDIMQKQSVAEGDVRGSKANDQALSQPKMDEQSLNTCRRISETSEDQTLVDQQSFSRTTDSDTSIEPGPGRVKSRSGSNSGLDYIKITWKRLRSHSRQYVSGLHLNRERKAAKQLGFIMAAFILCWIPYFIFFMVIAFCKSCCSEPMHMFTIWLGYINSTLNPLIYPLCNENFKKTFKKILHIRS
Protocol: In these tests, whole rat brains were used without the cerebellum. The tissue was homogenised in a phosphate buffer pH 7.5 according to Sorensen using the Ultra-Turrax. The homogenised material was then washed twice and centrifuged at 50,000×g. The pellet was taken up in a dilution, based on the starting tissue, of 1:100. […] The reactions were also ended by vacuum filtration and the radioactivity of the filters was measured. The non-specific binding was determined using mixtures which contained 10 micromolar triprolidine. The results were evaluated as in the studies of binding to the imipramine receptor.

| Structure (SMILES) | ED50 (secretion of saliva) [µmol/kg] | ED50 [1] [µmol/kg] | IC50 [2] [nM] | potency compared with compound D [2] | ED50 (M2) [µmol/kg] | ED50 [3] [µmol/kg] | ED50 [4] [µmol/kg] | IC50 [5] [nM] | Selectivity factor [drawing 24] [5] | ED50 (M1) [µmol/kg] | IC50 [6] [nM] | Selectivity factor [drawing 25] [6] | water solubility (monohydrochloride) [7] | IC50 (histamine-H1 receptor) [nM] |
| --- | --- | --- | --- | --- | --- | --- | --- | --- | --- | --- | --- | --- | --- | --- |
| O=C1Nc2cccnc2N(CCCCCCN2CCCCC2)c2ccccc21 [A, 5,11-dihydro-11-[6-(1-piperidinyl)hexyl]-6H-pyrido[2,3-b][1,4]benzodiazepin-6-one] | 0.447 | 1.29 | 0.6 | considerably higher potency | 0.011 | 0.0851 | 0.0661 | 10 | 16.7 | 0.295 | 4 | 6.7 | – | – |
| Cl.O=C1Nc2ccccc2N(CCCCCCN2CCCCCC2)c2ccccc21 [Example 16, 5,10-Dihydro-5-[6-(hexahydro-1H-1-azepinyl)hexyl]-11H-dibenzo[b,e][1,4]diazepin-11-one hydrochloride] | – | – | – | – | – | – | – | – | – | – | – | – | sparingly soluble in water | – |
| CCN(CC)CC1CCCCN1CC#CCN1c2ccccc2C(=O)Nc2cccnc21 (stereo not shown) [C, 11-[4-[2-[(diethylamino)methyl]-1-piperidinyl]but-2-ynyl]-5,11-dihydro-6H-pyrido[2,3-b][1,4]benzodiazepin-6-one] | 7.59 | > 2.29 | 18 | considerably higher potency | 0.0302 | 1.58 | 0.245 | 700 | 38.9 | 1.1 | 200 | 11.1 | – | – |
| CCN(CC)CC1CCCCN1CCCCN1c2ccccc2C(=O)Nc2cccnc21 (stereo not shown) [B, 11-[4-[2-[(diethylamino)methyl]-1-piperidinyl]butyl]-5,11-dihydro-6H-pyrido[2,3-b][1,4]benzodiazepin-6-one] | 3.16 | > 10 | 2 | considerably higher potency | 0.0398 | 0.646 | 0.468 | 80 | 40 | 0.676 | 20 | 10 | – | 9000 |
| CN1[C@@H]2CC[C@H]1C[C@@H](OC(=O)C(CO)c1ccccc1)C2 (stereo partly shown) [F, atropine, reference compound] | – | – | – | – | – | – | 0.02 | – | – | – | – | – | – | – |
| CCN(CC)CC1CCCCN1CC(=O)N1c2ccccc2C(=O)Nc2cccnc21 (stereo not shown) [D, 11-[[2-[(diethylamino)methyl]-1-piperidinyl]acetyl]-5,11-dihydro-6H-pyrido[2,3-b][1,4]benzodiazepin-6-one, reference compound] | 10 | – | – | – | – | – | – | – | – | – | – | – | – | – |
